Assay results: US5723439A (priority 1991, dated 1998)

Test system: influenza A/Aichi/2/68 (H3N2) virus
Assay type: in vivo, mice
Settings: intraperitoneal 15,000 KIU/mouse/day, 5-6 injections daily for 7 days

Substance: aprotinin
- protective effect (survival): 30%
